{"source": "patent US11225460B2", "about": "“Pyrrolidineamide derivatives and uses thereof” (SUNSHINE LAKE PHARMA CO., LTD., priority 2019, dated 2022)", "target": "T1, potassium channel of hERG (Homo sapiens, UniProt Q12809)", "T1 construct": "expressed in transfected cells; host or cells: HEK-293 cells", "T1 sequence (Q12809 whole entry)": "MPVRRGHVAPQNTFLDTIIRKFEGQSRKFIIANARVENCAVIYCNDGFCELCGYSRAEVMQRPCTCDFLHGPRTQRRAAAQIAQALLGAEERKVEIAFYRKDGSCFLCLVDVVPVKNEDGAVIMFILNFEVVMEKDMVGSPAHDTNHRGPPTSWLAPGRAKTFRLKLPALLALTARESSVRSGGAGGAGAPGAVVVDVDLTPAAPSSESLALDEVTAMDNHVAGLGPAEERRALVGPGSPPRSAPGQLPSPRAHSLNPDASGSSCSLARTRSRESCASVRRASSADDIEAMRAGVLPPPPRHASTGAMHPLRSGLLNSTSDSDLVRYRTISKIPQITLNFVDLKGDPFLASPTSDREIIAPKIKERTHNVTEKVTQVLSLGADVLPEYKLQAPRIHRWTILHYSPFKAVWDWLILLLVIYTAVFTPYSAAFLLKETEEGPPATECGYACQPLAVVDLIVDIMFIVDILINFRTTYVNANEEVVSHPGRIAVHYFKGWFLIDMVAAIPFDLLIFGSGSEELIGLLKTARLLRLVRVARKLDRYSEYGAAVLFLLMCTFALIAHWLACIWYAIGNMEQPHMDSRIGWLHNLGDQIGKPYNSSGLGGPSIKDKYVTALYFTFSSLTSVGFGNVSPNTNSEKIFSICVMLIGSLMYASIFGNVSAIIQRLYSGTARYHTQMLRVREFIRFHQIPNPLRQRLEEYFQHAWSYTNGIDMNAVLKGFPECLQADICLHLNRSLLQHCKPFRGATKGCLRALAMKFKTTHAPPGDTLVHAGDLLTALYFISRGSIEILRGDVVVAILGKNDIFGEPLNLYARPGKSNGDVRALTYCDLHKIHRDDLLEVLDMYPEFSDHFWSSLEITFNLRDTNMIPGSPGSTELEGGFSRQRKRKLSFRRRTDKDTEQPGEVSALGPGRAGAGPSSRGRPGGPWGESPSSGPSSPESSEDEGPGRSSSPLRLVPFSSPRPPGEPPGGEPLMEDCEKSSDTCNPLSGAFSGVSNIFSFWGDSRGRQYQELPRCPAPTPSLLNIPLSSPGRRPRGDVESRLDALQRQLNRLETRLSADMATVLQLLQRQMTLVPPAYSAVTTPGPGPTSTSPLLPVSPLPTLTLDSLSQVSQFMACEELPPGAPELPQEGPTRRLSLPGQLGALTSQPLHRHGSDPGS", "test": "Inhibitory effect on potassium channel of hERG by electrophysiological manual patch clamp", "format": "cell-based", "conditions": "HEK-293 cells overexpressed potassium channel of hERG, 0.37-30.00 μM, read-out: IC50 acting on hERG potassium channel", "experimental": "The cell line was derived from HEK-293 cells overexpressed potassium channel of hERG.\nThe cells were cultured in a5% CO2 incubator at 37° C. When the cell density reached 80% of the culture dish, the cells were pre-cleaned with phosphate buffer (PBS), and then digested with trypsin/EDTA for 2-3 minutes. and then the cell culture medium was added to stop digestion. The cells were blew with a pipette gently and transferred to a centrifugal tube. The cells were centrifuged for 3 minutes at 1,000 rpm. The supernatant was poured out. The cell culture medium was added and blew gently to mix the cells well. Then the cells were transferred to a culture dish for subculture, or the cells were dropped onto a circular slide and placed in a culture dish until cell adherence for experiment. […]\nhERG potassium channel current was recorded by using the whole cell recording mode. Firstly, the extracellular fluid (about 2 milliliters per minute) was perfused and recorded continuously, and waiting the current stabilization (Run-Down was less than 5% in 5 minutes). […] Then the extracellular fluid containing the tested compounds was perfused (the concentration of the tested compounds were 0.37 μM, 1.10 μM, 3.30 μM, 10.00 μM and 30.00 μM, respectively) and current value was recorded continuously until the inhibitory effect of the tested compounds on hERG current reached a stable state. […]", "data": [{"smiles": "NC(=O)[C@@H]1C[C@H](F)CN1Cc1ccc(OCc2cccc(F)c2)cc1", "note": "[Example 1, (2S,4S)-4-fluoro-1-(4-(3-fluorobenzyloxy)benzyl)pyrrolidine-2-formamide]", "values": [{"measurement": "IC50", "result": "> 30", "unit": "µM"}]}]}
